Reference: article doi:10.1101/2021.11.16.468530v1 (biorxiv, 2021)

Biological target: T1, human topoisomerase I (TOP1) (Homo sapiens, UniProt P11387)
T1 sequence (P11387 2-765): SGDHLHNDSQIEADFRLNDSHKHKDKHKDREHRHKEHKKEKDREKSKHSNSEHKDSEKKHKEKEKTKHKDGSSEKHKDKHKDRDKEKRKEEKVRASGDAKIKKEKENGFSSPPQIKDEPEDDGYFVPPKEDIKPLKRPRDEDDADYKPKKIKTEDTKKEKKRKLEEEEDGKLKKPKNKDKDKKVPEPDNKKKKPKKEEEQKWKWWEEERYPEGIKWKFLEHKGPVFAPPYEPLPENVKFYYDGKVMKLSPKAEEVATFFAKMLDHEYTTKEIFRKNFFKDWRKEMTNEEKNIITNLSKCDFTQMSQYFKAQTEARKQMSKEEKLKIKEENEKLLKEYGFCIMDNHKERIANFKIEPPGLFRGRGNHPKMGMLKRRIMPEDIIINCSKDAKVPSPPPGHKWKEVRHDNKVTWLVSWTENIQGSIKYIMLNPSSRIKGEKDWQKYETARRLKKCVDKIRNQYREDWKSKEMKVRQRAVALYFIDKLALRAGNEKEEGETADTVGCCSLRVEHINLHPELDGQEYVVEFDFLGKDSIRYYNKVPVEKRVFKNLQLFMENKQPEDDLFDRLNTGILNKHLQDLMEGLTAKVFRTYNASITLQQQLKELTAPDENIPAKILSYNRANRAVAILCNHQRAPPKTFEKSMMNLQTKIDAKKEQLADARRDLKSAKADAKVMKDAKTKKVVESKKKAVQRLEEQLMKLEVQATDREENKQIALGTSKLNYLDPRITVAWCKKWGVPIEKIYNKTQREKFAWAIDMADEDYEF
Assay: supercoiled plasmid DNA relaxation, agarose gel
Format: biochemical

SMILES	IC50 [µM]
O=C(Nc1ccc(Sc2ccc(N=Nc3c(O)c(S(=O)(=O)O)cc4cc(S(=O)(=O)O)ccc34)cc2)cc1)c1ccc(N=Nc2c(O)c(S(=O)(=O)O)cc3cc(S(=O)(=O)O)ccc23)cc1 [NSC65860]	0.89
O=c1c(O)c(-c2cc(O)c(O)c(O)c2)oc2cc(O)cc(O)c12 [myricetin]	~10
